Measurements as given in ChEMBL document CHEMBL1201862, “PubChem BioAssay data set” (2004).
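Five compound concentrations were applied to cells in 96-well plates for 48 hours; endpoints were derived by simple linear interpolation of the resulting dose-response curve. At the GI50, growth is halved.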 Calls of active or inactive are those of the source. Rule as the data show it: active = GI50 up to about 1.1 µM and inactive = higher.

Legend:
Assay in all cases: NCI anticancer screen, dose series, 48 h
HCT-116 = system: HCT-116
NCI-H522 = system: NCI-H522
SK-OV-3 = system: SK-OV-3
MDA-N = system: MDA-N
TK-10 = system: TK-10
M14 = system: M14
RPMI-8226 = system: RPMI-8226
HOP-92 = system: HOP-92
HOP-62 = system: HOP-62
SK-MEL-28 = system: SK-MEL-28
SN12C = system: SN12C
CAKI-1 = system: CAKI-1
MDA-MB-231 = system: MDA-MB-231
ACHN = system: ACHN
U-251 = system: U-251
EKVX = system: EKVX
NCI-H460 = system: NCI-H460
PC-3 = system: PC-3
UACC-62 = system: UACC-62
Hs-578T = system: Hs-578T

## CC1(C)O[C@@H](CP(c2ccccc2)c2ccccc2)[C@H](CP(c2ccccc2)c2ccccc2)O1
HCT-116
  GI50: 1.84 µM (inactive)
NCI-H522
  GI50: 2.38 µM (inactive)
SK-OV-3
  GI50: 15.2 µM (inactive)
MDA-N
  GI50: 3.05 µM (inactive)
TK-10
  GI50: 14.2 µM (inactive)
M14
  GI50: 5.94 µM (inactive)
RPMI-8226
  GI50: 3.72 µM (inactive)
HOP-92
  GI50: 8 µM (inactive)
HOP-62
  GI50: 15.1 µM (inactive)
SK-MEL-28
  GI50: 12.3 µM (inactive)
SN12C
  GI50: 4.11 µM (inactive)
CAKI-1
  GI50: 21 µM (inactive)
MDA-MB-231
  GI50: 5.85 µM (inactive)
ACHN
  GI50: 15.2 µM (inactive)
U-251
  GI50: 3.66 µM (inactive)
EKVX
  GI50: 6.38 µM (inactive)
NCI-H460
  GI50: 4.03 µM (inactive)

## C1CSCC2(COC2)CSCCSCC2(COC2)CS1
HCT-116
  GI50: > 100 µM (inactive)
NCI-H522
  GI50: > 100 µM (inactive)
SK-OV-3
  GI50: > 100 µM (inactive)
MDA-N
  GI50: > 100 µM (inactive)
TK-10
  GI50: > 100 µM (inactive)
M14
  GI50: > 100 µM (inactive)
HOP-92
  GI50: > 100 µM (inactive)
HOP-62
  GI50: > 100 µM (inactive)
SK-MEL-28
  GI50: > 100 µM (inactive)
PC-3
  GI50: > 100 µM (inactive)
SN12C
  GI50: > 100 µM (inactive)
MDA-MB-231
  GI50: > 100 µM (inactive)
UACC-62
  GI50: > 100 µM (inactive)
U-251
  GI50: > 100 µM (inactive)
EKVX
  GI50: > 100 µM (inactive)
NCI-H460
  GI50: > 100 µM (inactive)

## C=C[C@]1(C)CCC2=C(CCC3C2(C)CCC[C@@]3(C)COC(C)=O)C1 (stereo partly specified)
HCT-116
  GI50: 17.2 µM (inactive)
NCI-H522
  GI50: 15.4 µM (inactive)
SK-OV-3
  GI50: 18.5 µM (inactive)
TK-10
  GI50: 25.8 µM (inactive)
M14
  GI50: 20.9 µM (inactive)
RPMI-8226
  GI50: 17.1 µM (inactive)
HOP-92
  GI50: 19.5 µM (inactive)
HOP-62
  GI50: 22.9 µM (inactive)
SK-MEL-28
  GI50: 33.1 µM (inactive)
SN12C
  GI50: 16.8 µM (inactive)
CAKI-1
  GI50: 20.5 µM (inactive)
ACHN
  GI50: 17.5 µM (inactive)
UACC-62
  GI50: 21.1 µM (inactive)
U-251
  GI50: 17.8 µM (inactive)
EKVX
  GI50: 19.5 µM (inactive)
NCI-H460
  GI50: 17.6 µM (inactive)

## COC(=O)c1nc2c(C)c(O)c(O)c([C@H](C)CCC=C(C)C)c2o1
HCT-116
  GI50: 8.34 µM (inactive)
SK-OV-3
  GI50: 40.6 µM (inactive)
TK-10
  GI50: 39 µM (inactive)
M14
  GI50: 37.3 µM (inactive)
RPMI-8226
  GI50: 13 µM (inactive)
HOP-92
  GI50: 26.5 µM (inactive)
HOP-62
  GI50: 16.5 µM (inactive)
SK-MEL-28
  GI50: 32.7 µM (inactive)
PC-3
  GI50: 26.6 µM (inactive)
Hs-578T
  GI50: 30.5 µM (inactive)
CAKI-1
  GI50: 23.8 µM (inactive)
MDA-MB-231
  GI50: 45.1 µM (inactive)
ACHN
  GI50: 22.6 µM (inactive)
UACC-62
  GI50: > 10 µM (inactive)
U-251
  GI50: 28.5 µM (inactive)
EKVX
  GI50: 29.7 µM (inactive)
NCI-H460
  GI50: 46.5 µM (inactive)

## CC(C)C(Sc1nc(-c2ccccc2)c(-c2ccccc2)[nH]1)C(=O)N/N=C/c1ccc([N+](=O)[O-])cc1 (stereo unspecified)
HCT-116
  GI50: 14.5 µM (inactive)
NCI-H522
  GI50: 15.3 µM (inactive)
SK-OV-3
  GI50: 22.8 µM (inactive)
TK-10
  GI50: 30.1 µM (inactive)
M14
  GI50: 7.33 µM (inactive)
RPMI-8226
  GI50: 11.5 µM (inactive)
HOP-92
  GI50: 10.4 µM (inactive)
HOP-62
  GI50: 20.8 µM (inactive)
SK-MEL-28
  GI50: 15.5 µM (inactive)
SN12C
  GI50: 12.5 µM (inactive)
CAKI-1
  GI50: 21.1 µM (inactive)
ACHN
  GI50: 15.6 µM (inactive)
UACC-62
  GI50: 15.6 µM (inactive)
U-251
  GI50: 14.6 µM (inactive)
EKVX
  GI50: 20.4 µM (inactive)
NCI-H460
  GI50: 9.46 µM (inactive)

## Cc1nc2c(ccc3ncccc32)[nH]1
NCI-H522
  GI50: > 100 µM (inactive)
SK-OV-3
  GI50: > 100 µM (inactive)
TK-10
  GI50: > 100 µM (inactive)
M14
  GI50: > 100 µM (inactive)
RPMI-8226
  GI50: > 100 µM (inactive)
HOP-92
  GI50: > 100 µM (inactive)
HOP-62
  GI50: > 100 µM (inactive)
SK-MEL-28
  GI50: > 100 µM (inactive)
SN12C
  GI50: > 100 µM (inactive)
CAKI-1
  GI50: > 100 µM (inactive)
ACHN
  GI50: > 100 µM (inactive)
UACC-62
  GI50: > 100 µM (inactive)
U-251
  GI50: > 100 µM (inactive)
EKVX
  GI50: > 100 µM (inactive)
NCI-H460
  GI50: > 100 µM (inactive)

## CC(=O)O[C@H]1CC[C@@]2(C)C(=CC[C@@H]3[C@@H]2CC[C@]2(C)c4nc(Cl)ccc4C[C@@H]32)C1
HCT-116
  GI50: 32.6 µM (inactive)
NCI-H522
  GI50: 24.5 µM (inactive)
SK-OV-3
  GI50: > 100 µM (inactive)
MDA-N
  GI50: 29.3 µM (inactive)
TK-10
  GI50: 54.3 µM (inactive)
M14
  GI50: 60 µM (inactive)
HOP-92
  GI50: 54.7 µM (inactive)
HOP-62
  GI50: 45.4 µM (inactive)
SK-MEL-28
  GI50: 45.6 µM (inactive)
PC-3
  GI50: 50 µM (inactive)
SN12C
  GI50: 41.7 µM (inactive)
CAKI-1
  GI50: 66.4 µM (inactive)
MDA-MB-231
  GI50: > 100 µM (inactive)
ACHN
  GI50: 33.7 µM (inactive)
UACC-62
  GI50: 18.2 µM (inactive)
U-251
  GI50: 97.1 µM (inactive)
EKVX
  GI50: 25.2 µM (inactive)
NCI-H460
  GI50: 33.4 µM (inactive)

## COc1cc(C2c3cc4c(cc3[C@@H](OCCN(C)C)C3COC(=O)[C@H]23)OCO4)cc(OC)c1O (stereo partly specified)
HCT-116
  GI50: 1.04 µM (active)
NCI-H522
  GI50: 0.111 µM (active)
SK-OV-3
  GI50: 0.163 µM (active)
TK-10
  GI50: 1.58 µM (inactive)
M14
  GI50: 0.384 µM (active)
RPMI-8226
  GI50: 0.0472 µM (active)
HOP-92
  GI50: 0.196 µM (active)
HOP-62
  GI50: 0.045 µM (active)
SK-MEL-28
  GI50: 0.993 µM (active)
SN12C
  GI50: 0.151 µM (active)
CAKI-1
  GI50: 0.14 µM (active)
ACHN
  GI50: 0.1 µM (active)
UACC-62
  GI50: 0.243 µM (active)
U-251
  GI50: 0.0849 µM (active)
EKVX
  GI50: 1.65 µM (inactive)
NCI-H460
  GI50: 0.0127 µM (active)

## CCCCCCCCCc1cc(=O)c2ccc(O)cc2o1
HCT-116
  GI50: 38.5 µM (inactive)
NCI-H522
  GI50: 31.4 µM (inactive)
SK-OV-3
  GI50: 60.3 µM (inactive)
TK-10
  GI50: 30 µM (inactive)
M14
  GI50: > 100 µM (inactive)
RPMI-8226
  GI50: 17.9 µM (inactive)
HOP-92
  GI50: 16.4 µM (inactive)
HOP-62
  GI50: > 100 µM (inactive)
SK-MEL-28
  GI50: > 100 µM (inactive)
SN12C
  GI50: > 100 µM (inactive)
CAKI-1
  GI50: 4.66 µM (inactive)
ACHN
  GI50: 42.2 µM (inactive)
UACC-62
  GI50: > 100 µM (inactive)
U-251
  GI50: 33.8 µM (inactive)
EKVX
  GI50: > 100 µM (inactive)
NCI-H460
  GI50: 57.8 µM (inactive)

## COc1c(Cl)c2c(c(OC)c1OC)-c1ccc(OC)c(=O)c(Cl)c1C(NC(C)=O)CC2 (stereo unspecified)
HCT-116
  GI50: 0.125 µM (active)
NCI-H522
  GI50: 0.148 µM (active)
SK-OV-3
  GI50: 0.133 µM (active)
TK-10
  GI50: 0.69 µM (active)
M14
  GI50: 0.244 µM (active)
RPMI-8226
  GI50: 0.337 µM (active)
HOP-92
  GI50: 0.117 µM (active)
HOP-62
  GI50: 0.306 µM (active)
SK-MEL-28
  GI50: 0.288 µM (active)
SN12C
  GI50: 0.444 µM (active)
CAKI-1
  GI50: 0.608 µM (active)
ACHN
  GI50: 0.668 µM (active)
UACC-62
  GI50: 0.108 µM (active)
U-251
  GI50: 0.235 µM (active)
EKVX
  GI50: 7.35 µM (inactive)
NCI-H460
  GI50: 0.134 µM (active)

## Cc1cc(C(=O)CBr)c(CN2C(=O)c3ccccc3C2=O)c(=O)n1C
HCT-116
  GI50: 66.1 µM (inactive)
NCI-H522
  GI50: 16.1 µM (inactive)
SK-OV-3
  GI50: > 100 µM (inactive)
TK-10
  GI50: 7.43 µM (inactive)
M14
  GI50: 43.1 µM (inactive)
HOP-62
  GI50: 47.4 µM (inactive)
SK-MEL-28
  GI50: 20.4 µM (inactive)
PC-3
  GI50: 17.2 µM (inactive)
SN12C
  GI50: 17.6 µM (inactive)
Hs-578T
  GI50: 15.2 µM (inactive)
CAKI-1
  GI50: 20.6 µM (inactive)
MDA-MB-231
  GI50: 18.1 µM (inactive)
ACHN
  GI50: 8.47 µM (inactive)
UACC-62
  GI50: 16.6 µM (inactive)
U-251
  GI50: 12.7 µM (inactive)
EKVX
  GI50: 2.21 µM (inactive)
NCI-H460
  GI50: 26.3 µM (inactive)

## CC(C)OC(=O)NCCn1cc(-c2ccccc2)nn1
HCT-116
  GI50: > 100 µM (inactive)
NCI-H522
  GI50: > 100 µM (inactive)
TK-10
  GI50: > 100 µM (inactive)
M14
  GI50: > 100 µM (inactive)
RPMI-8226
  GI50: > 100 µM (inactive)
HOP-92
  GI50: > 100 µM (inactive)
HOP-62
  GI50: > 100 µM (inactive)
SK-MEL-28
  GI50: > 100 µM (inactive)
PC-3
  GI50: > 100 µM (inactive)
SN12C
  GI50: > 100 µM (inactive)
CAKI-1
  GI50: > 100 µM (inactive)
MDA-MB-231
  GI50: > 100 µM (inactive)
ACHN
  GI50: > 100 µM (inactive)
U-251
  GI50: > 100 µM (inactive)
EKVX
  GI50: > 100 µM (inactive)
NCI-H460
  GI50: > 100 µM (inactive)
